The values below come from a melting point compilation (Tetko et al.; mined from patent text by program, amines drawn as free bases though some values may be those of a salt).

In general, melting point refers to the temperature of the solid-liquid transition. The molecule `COc1cc2ncc(C#N)c(Nc3cccc(F)c3)c2cc1OC` came in with a melting point of 226 to 230 °C.

`CC(=O)SC1CC(=O)N1C(Cl)C(=O)OCc1ccc([N+](=O)[O-])cc1` (centres undefined) had a melting point of 72 to 73 °C.

Regarding `NNC(=O)C[C@H](O)c1ccccc1`, the melting point was determined as 180 °C.

Molecule `COc1ccccc1-n1c(=O)[nH]c2c(C(N)=O)nc(-c3cccc(C(N)=O)c3)nc21` registered a melting point of 338 to 339 °C.

In the case of `Cc1ccc2c(c1)-c1csc(N)c1C2=O`, the melting point lay in the range of 157 to 159 °C. With `CCCc1nn(-c2ccc(C(F)(F)F)cn2)cc1CCCCOc1cc(CCC(=O)O)n(-c2ccccc2)n1` the figure was 123 to 124 °C; with `COc1ccc(S(=O)(=O)N2C(=O)C(c3ccccc3O)(N3CCC[C@H]3C(=O)N(C)C)c3cc(Cl)ccc32)c(OC)c1` (some centres undefined), 143 °C; with `O=C(Nc1ccc(-n2nc(C(F)(F)F)cc2Br)cc1)c1ccncc1Cl`, 79 to 82 °C. As to `c1ccc(C2CCN(CCC(c3ccccc3)(c3ccccc3)c3nnn[nH]3)CC2)cc1`, the melting point was 149 to 157 °C. Take `CC(C)(C)c1cc(C2=CCOCC2)c(O)c(C(C)(C)C)c1`: the melting point lay within 135 to 139 °C. `O=Cc1c[nH]c2c1ccc1c3cc([N+](=O)[O-])ccc3[nH]c12`: the melting point is above 250 °C. On to `O=C(C1=Cc2ccccc2C1)c1ccc(OC(F)(F)F)cc1`, for which the melting point was 115 to 117 °C. On to `FC(F)(F)Oc1ccc2nccc(N3CCN(C(=S)NCc4ccccc4)CC3)c2c1`, for which the melting point lay in the range of 70 to 71 °C. The molecule `O=C(NCCN1CCN(c2cccc(Cl)c2)CC1)c1nsc2ccccc12` showed a melting point of 115 to 117 °C. Take `CCCC(=O)c1cnc2c(OCC)nccc2c1Nc1ccccc1C`: the melting point is 112 °C. With `O=[N+]([O-])c1ccc2c(c1)CNCCS2`, the melting point is 104 to 105 °C.

`CC(=O)NC[C@H]1CN(c2ccc(N3CCC(n4nnnc4Cc4cccs4)CC3)c(F)c2)C(=O)O1` showed a melting point of 149 to 150 °C. Next, `CC1(C)Oc2ccsc2C(NC(=O)c2ccc(C(F)(F)F)cc2)C1O` (centres undefined): 162 to 163 °C; `COc1ccc(C2=NN(C3CCN(S(=O)(=O)c4cccc(C#N)c4)CC3)C(=O)C(C)(C)C2)cc1OC`: 158 to 160 °C; `CN(C)Cc1ccccc1C(O)c1ccsc1` (centres undefined): 77 to 78 °C. As to `Cc1c([N+](=O)[O-])cc2c(c1C)OC(C)(C)C2=O`, the melting point was 131 to 132 °C. `CC(C)CC1(C(CCN2C(=O)c3cccc([N+](=O)[O-])c3C2=O)C(=O)NO)CCN(CCc2ccccc2)C1=O` (centres undefined): the melting point lay in the range of 136 to 138 °C. As to `COc1cccc(-c2c(=O)[nH]c3cc(Cl)c(Cl)cc3[n+]2[O-])c1`, the melting point was 238 to 240 °C.

`C=CCC1(CC=C)c2cc(N(c3ccccc3)c3ccccc3)ccc2-c2ccc(N(c3ccccc3)c3ccccc3)cc21` displayed a melting point of 179 to 183 °C. `Cc1ccc([N+](=O)[O-])c2c1CCN2` registered a melting point of 125 to 127 °C.

Consider `Cc1ccc(C(=O)CBr)cc1S(N)(=O)=O`, for which the melting point lay in the range of 146 to 148 °C. Turning to `COC(=O)C1Cc2cncn2C(=O)N1` (centres undefined), the melting point lay within 159 to 164 °C. `O=C1NC(=O)N(Cc2ccc(Cl)cc2)C1O` (centres undefined) came in with a melting point of 149 to 150 °C. `c1ccc(-c2cn([C@H]3CN4CCC3CC4)nn2)cc1`: the melting point worked out at 132 °C.

In the case of `CCN(CC)Cc1ccc2c(c1)ncn2-c1cccc(-c2nccs2)c1`, the melting point is 152 °C.

In turn, `CC(=O)c1cc(S(=O)(=O)N(C)C)ccc1O` came in with a melting point of 115 to 116 °C. `COc1cnc(CSc2nc3cc4c(cc3[nH]2)OC(F)(F)O4)cc1OC`: the melting point was in the range of 189 to 191 °C.

The molecule `CC(Oc1ncn(-c2cccc(F)c2)n1)C(N)=O` (centres undefined) registered a melting point of 156 to 158 °C.

`Cc1cccc2c(Cl)c(CCCl)nnc12` returned a melting point of 102 to 104 °C. With `CCN1C(=O)C(C)(C)C(=O)N(C)c2cc(CN(CCn3ccc4oc(C)cc4c3=O)Cc3ccncc3)ccc21` the figure was 143 to 145 °C. In turn, `O=[N+]([O-])c1cc(C(F)(F)F)ccc1C(O)c1cnoc1C1CC1` (centres undefined) had a melting point of 76 °C. Molecule `CCN(CC)C(=O)c1c(C)cccc1Cl` gave a melting point of 48 to 49 °C. `Fc1cc2[nH]c(S)nc2cc1N1CCCC1` yielded a melting point of 170 to 171 °C. Regarding `Cc1cccc(C)c1NC(=O)N1CCCN(C(C)C)C1`, the melting point lay within 138 to 139 °C. `CCC(C)(NC(=O)c1cc(Cl)c(N)c(C=NOC)c1)C(=O)CCl` (centres undefined): the melting point is 140 to 141 °C. Turning to `CC(C)(CO)c1ccc(C#N)cc1`, the melting point was 70 to 82 °C. Take `O=C1OCCC1Oc1ccc(-c2ccccc2)cc1[N+](=O)[O-]` (centres undefined): the melting point lay within 117 to 119 °C. Molecule `N#CCCNC(=O)c1cccc(-c2cccc3c(F)c(Cc4cccc(C(F)(F)F)c4)sc23)c1` registered a melting point of 66 to 67 °C. The molecule `O[C@@H](CNCCOc1ccc2oc(-c3ccon3)cc2c1)COc1ccccc1` gave a melting point of 107 to 110 °C.

For `CCCc1c(OCCOc2ccccc2C(=O)O)ccc(C(C)=O)c1O`, the melting point was in the range of 108 to 110 °C. Turning to `CC(C)(C)OC(=O)N1CCC(OCc2ccccc2)C1CC(=O)Cn1cnc2ccncc2c1=O` (centres undefined), the melting point stood at 221 °C. `N#Cc1[nH]c(Br)c(-c2ccc(Cl)cc2)c1Br` came in with a melting point of 191 to 194 °C. For the molecule `CN(C(=O)CCN1CCC(C(O)(c2ccc(F)cc2)c2ccc(F)cc2)CC1)c1ccccc1`, the melting point lay within 73 to 75 °C.

As to `NS(=O)(=O)c1cc2[nH]c(CCl)nc2cc1Cl`, the melting point is 296 to 301 °C.

The molecule `COc1ccc(C[C@](C)(N[C@@H](C(N)=O)c2ccccc2)C(N)=O)cc1` displayed a melting point of 106 to 108 °C. With `CCCCCCCCCCCOc1ccc(-c2ccc(OCC(C)OC(=O)CC(C)C)cc2)cc1` (centres undefined) the figure was 65.4 to 66.5 °C; with `CCOC(=O)c1ccc(OC)nc1C(F)(F)F`, 150 to 152 °C. `COC(=O)C1=Cc2cc(-c3ccc(OCCOC(C)C)cc3)ccc2NCC1` returned a melting point of 86 to 88 °C. The molecule `CC(C)(C)NC(=O)N(C=O)Oc1cc(Cl)ccc1Cl` registered a melting point of 101 to 102 °C. As for `CCc1coc(=O)n1C(=O)c1ccccc1Cl`, the melting point lay within 110 to 112 °C.

In turn, `NC(=O)COc1ccc2sc(S(N)(=O)=O)cc2c1` registered a melting point of 197 to 198 °C.

The molecule `CCOC(=O)C1(F)C(=O)NC(=O)NC1O/N=C\c1ccco1` (centres undefined) came in with a melting point of 152 to 153 °C. Next, `COc1ccc2c(c1)c(CC(=O)N(C)O)c(C)n2C(=O)c1ccc(Cl)cc1`: 170 to 171 °C; `CC1CCN(C(=O)c2nc(-c3ccccc3)nc3ccccc23)CC1`: 138 °C; `O=C(O)c1ccccc1Oc1ccc(Cl)cc1`: 114 to 115 °C. Regarding `CCCc1c(C(=O)O)c(=O)cc(-c2ccccc2)n1C`, the melting point stood at 150 °C. Next, `CCC(OC)c1c(Br)c(Oc2ncnc3[nH]nnc23)c(OC)c(C)c1C(C)C` (centres undefined): 149 to 150 °C; `CCn1c(=O)n(N(Cc2ccccc2)Cc2ccccc2)c(=O)c2cc(F)c(F)cc21`: 133 to 135 °C; `Cc1cc(C(=O)N2Cc3cccn3Cc3ccccc32)ccc1-c1ccncc1`: 208 to 210 °C.
